Measured values published in ChEMBL document CHEMBL1131653, “Syntheses of D- and L-myo-inositol 1,2,4,5-tetrakisphosphate and stereoselectivity of the I(1,4,5)P3 receptor binding” (Bioorg Med Chem Lett, 1998).

Biological target: Inositol 1,4,5-trisphosphate-gated calcium channel ITPR3 (Bos taurus, UniProt Q8WN95)
Experiment: Binding affinity towards Inositol 1,4,5-trisphosphate receptor was evaluated by the standard competitive binding assay using 1.25 nM [3H]D-I(1,4,5)P3 binding protein, prepared from bovine adrenal cortex
Type: tissue-based

Inositol 1,4,5-trisphosphate-gated calcium channel ITPR3, sequence (Q8WN95 whole entry): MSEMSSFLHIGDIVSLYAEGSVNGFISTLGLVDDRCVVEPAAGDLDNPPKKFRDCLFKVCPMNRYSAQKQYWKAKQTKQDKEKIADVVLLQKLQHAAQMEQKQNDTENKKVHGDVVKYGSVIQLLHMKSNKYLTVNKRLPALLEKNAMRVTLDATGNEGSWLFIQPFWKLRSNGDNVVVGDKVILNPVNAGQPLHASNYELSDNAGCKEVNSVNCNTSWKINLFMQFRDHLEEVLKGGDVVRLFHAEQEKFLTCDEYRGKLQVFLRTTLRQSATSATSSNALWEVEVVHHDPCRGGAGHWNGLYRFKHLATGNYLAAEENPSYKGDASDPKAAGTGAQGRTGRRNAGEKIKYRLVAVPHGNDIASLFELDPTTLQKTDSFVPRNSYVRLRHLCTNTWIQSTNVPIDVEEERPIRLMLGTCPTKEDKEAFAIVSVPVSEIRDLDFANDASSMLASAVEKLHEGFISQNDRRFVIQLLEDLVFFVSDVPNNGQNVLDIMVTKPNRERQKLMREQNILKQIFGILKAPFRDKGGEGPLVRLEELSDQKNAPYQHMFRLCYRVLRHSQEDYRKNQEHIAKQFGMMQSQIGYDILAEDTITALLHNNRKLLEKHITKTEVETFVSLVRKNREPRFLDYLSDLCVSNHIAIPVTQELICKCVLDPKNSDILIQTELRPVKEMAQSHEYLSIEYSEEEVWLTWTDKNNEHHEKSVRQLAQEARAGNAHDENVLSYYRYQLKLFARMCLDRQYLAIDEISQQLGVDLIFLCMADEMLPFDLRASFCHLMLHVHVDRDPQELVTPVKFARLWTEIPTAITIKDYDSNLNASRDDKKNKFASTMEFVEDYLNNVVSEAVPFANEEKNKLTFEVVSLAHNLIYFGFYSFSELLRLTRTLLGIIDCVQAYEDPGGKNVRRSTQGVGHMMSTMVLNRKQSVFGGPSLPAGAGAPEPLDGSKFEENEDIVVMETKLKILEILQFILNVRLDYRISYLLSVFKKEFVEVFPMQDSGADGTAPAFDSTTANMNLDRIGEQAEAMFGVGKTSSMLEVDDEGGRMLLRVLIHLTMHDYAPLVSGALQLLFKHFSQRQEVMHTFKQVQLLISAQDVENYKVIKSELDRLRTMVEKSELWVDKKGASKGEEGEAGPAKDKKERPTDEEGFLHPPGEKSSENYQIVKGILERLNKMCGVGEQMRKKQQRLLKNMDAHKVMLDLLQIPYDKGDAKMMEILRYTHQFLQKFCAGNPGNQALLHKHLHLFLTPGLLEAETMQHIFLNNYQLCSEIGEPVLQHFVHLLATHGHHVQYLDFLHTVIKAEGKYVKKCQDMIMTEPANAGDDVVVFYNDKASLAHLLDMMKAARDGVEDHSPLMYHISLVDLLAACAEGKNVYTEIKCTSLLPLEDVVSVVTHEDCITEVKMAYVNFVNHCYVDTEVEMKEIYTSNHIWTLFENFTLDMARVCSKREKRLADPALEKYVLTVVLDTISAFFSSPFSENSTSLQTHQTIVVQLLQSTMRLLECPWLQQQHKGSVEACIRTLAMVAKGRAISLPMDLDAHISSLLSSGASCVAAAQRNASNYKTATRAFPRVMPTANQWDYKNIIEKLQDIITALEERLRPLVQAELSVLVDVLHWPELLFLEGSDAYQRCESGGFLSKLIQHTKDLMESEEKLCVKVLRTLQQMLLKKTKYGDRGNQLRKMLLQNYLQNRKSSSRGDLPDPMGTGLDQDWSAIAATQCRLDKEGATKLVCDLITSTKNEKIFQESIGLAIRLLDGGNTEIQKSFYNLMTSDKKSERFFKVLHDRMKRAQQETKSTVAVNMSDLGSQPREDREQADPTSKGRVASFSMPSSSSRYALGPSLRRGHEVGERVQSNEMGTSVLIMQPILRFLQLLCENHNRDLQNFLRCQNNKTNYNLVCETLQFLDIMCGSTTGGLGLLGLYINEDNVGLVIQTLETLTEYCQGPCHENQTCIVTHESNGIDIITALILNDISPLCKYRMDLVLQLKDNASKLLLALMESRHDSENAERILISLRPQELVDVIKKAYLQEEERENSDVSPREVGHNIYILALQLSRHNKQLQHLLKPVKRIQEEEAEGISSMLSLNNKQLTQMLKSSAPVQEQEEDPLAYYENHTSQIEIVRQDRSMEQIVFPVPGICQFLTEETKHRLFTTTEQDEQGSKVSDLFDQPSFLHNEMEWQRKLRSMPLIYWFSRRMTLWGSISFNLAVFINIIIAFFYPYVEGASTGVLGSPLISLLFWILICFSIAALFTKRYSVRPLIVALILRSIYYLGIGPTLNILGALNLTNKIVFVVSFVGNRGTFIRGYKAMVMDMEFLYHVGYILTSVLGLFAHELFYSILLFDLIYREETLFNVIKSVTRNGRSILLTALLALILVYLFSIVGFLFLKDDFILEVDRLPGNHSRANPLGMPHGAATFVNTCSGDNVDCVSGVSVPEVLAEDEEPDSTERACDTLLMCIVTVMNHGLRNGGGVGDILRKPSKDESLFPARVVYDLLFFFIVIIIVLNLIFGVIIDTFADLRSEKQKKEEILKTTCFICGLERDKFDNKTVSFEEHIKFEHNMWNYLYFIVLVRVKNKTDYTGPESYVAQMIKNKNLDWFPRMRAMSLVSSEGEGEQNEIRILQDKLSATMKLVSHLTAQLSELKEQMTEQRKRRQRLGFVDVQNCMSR

IC50 | SMILES
598 nM | O=P(O)(O)O[C@@H]1[C@@H](O)[C@H](OP(=O)(O)O)[C@@H](OP(=O)(O)O)[C@H](O)[C@@H]1OP(=O)(O)O
13.4 nM | O=P(O)(O)O[C@@H]1[C@@H](O)[C@@H](OP(=O)(O)O)[C@@H](OP(=O)(O)O)[C@H](O)[C@H]1OP(=O)(O)O
